The source of these data is ChEMBL document CHEMBL1221272, “Discovery and structure-activity relationships of a series of pyroglutamic acid amide antagonists of the P2X7 receptor” (Bioorg Med Chem Lett, 2010).

Converted amounts (≈) assume the structure as drawn. The source made the active and inactive calls. The calls are words filed in the database; no cut-off is given here. A value given as a limit tells only on which side of the number the result lay.

Series [1] has as its target T1, P2X purinoceptor 7 (Homo sapiens, UniProt Q99572).
T1 sequence (Q99572 whole entry): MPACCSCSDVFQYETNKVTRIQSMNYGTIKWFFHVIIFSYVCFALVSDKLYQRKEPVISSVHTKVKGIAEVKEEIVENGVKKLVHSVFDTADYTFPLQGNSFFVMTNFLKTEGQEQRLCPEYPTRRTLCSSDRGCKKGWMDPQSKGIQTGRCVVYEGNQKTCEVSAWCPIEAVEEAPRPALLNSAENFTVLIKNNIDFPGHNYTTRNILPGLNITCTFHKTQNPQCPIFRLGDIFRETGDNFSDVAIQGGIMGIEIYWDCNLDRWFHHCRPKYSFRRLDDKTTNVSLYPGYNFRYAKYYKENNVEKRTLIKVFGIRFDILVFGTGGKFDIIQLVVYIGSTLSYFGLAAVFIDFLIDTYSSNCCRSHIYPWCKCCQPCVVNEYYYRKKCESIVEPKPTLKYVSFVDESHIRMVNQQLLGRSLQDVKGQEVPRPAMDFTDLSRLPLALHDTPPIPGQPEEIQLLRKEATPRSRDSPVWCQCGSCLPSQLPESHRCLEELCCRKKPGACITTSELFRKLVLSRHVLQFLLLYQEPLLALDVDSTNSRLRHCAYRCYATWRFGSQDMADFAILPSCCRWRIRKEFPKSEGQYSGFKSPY
In words: Inhibition of human P2X7 receptor by ethidium bromide release assay.

The target in series [2] is T2, P2X purinoceptor 7 (Rattus norvegicus, UniProt Q64663).
T2 sequence (Q64663 whole entry): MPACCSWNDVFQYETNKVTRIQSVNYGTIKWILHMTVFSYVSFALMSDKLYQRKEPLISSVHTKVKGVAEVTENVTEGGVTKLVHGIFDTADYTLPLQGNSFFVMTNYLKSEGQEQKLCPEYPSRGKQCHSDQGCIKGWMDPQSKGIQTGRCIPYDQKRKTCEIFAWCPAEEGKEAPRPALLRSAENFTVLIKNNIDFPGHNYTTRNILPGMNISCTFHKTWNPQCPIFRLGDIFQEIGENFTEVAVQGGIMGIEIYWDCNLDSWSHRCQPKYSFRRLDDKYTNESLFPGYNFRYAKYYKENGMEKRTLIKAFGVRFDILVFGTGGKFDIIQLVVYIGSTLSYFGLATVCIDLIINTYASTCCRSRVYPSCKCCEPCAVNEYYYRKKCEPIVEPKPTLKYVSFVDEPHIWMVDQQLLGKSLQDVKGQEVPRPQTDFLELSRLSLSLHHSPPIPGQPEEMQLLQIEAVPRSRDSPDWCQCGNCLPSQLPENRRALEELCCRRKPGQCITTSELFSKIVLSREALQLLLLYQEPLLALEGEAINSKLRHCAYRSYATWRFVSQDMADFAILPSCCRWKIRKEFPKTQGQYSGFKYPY
Kind of series: Inhibition of rat P2X7 receptor by ethidium bromide release assay.

In series [3] the test system is Liver microsomes. In words: Intrinsic clearance in rat liver microsome. In kind it is ADME. A general note: Microsomes from liver hold many membrane-bound enzymes, among them those of drug oxidation.
In series [4] the test system is Rattus norvegicus. Kind of series: Antiinflammatory activity in rat assessed as inhibition of FCA-induced hypersensitivity at 20 and 50 mg/kg, po bid for 5 days. In kind it is functional, organism-based. Also noted: dose 50 mg/kg.
The nature of series [5]: Lipophilicity, log D of the compound at pH 7.4. The note with it: buffer. The series is classed as physicochemical.
In series [6] the test system is Brain. Kind of series: Drug level in rat brain at 50 mg/kg, po. In kind it is ADME, organism-based. Also noted: dose 50 mg/kg, route oral. The conditions noted are these: in vivo, read-out: Drug uptake.
Series [7] is described as follows: Half life in rat at 1 mg/kg, iv for 1 hrs. In kind it is ADME, organism-based. On the set-up: dose 1 mg/kg, route intravenous. The note with it: in vivo.
The nature of series [8]: Oral bioavailability in rat at 3 mg/kg for 1 hrs. In kind it is ADME, organism-based. The conditions noted are these: in vivo.
For series [9], the system named is Plasma. In words: Drug level in rat plasma at 50 mg/kg, po. The series is classed as ADME, organism-based. On the set-up: dose 50 mg/kg, route oral. The conditions noted are these: in vivo, read-out: Drug uptake.
Series [10] in a line: Drug level in brain of rat chronic constriction injury model at 20 mg/kg, po bid for 8 days measured on last day. Also noted: dose 20 mg/kg, route oral. The series is classed as ADME, organism-based.
Series [11] deals with Rattus norvegicus. Kind of series: Antiallodynic activity in rat chronic constriction injury model assessed as nerve injury-induced allodynia at 20 mg/kg, po bid measured post dose on day 1 of 8 days treatment. The series is classed as functional, organism-based. On the set-up: dose 20 mg/kg.
Series [12] can be described thus: Cmax in rat at 3 mg/kg, po for 1 hrs. In kind it is ADME, organism-based. Also noted: dose 3 mg/kg, route oral. The note with it: in vivo.
Series [13] has as its system Rattus norvegicus. In words: Antiallodynic activity in rat chronic constriction injury model assessed as nerve injury-induced allodynia at 20 mg/kg, po bid measured post dose on day 1 of 8 days treatment.
A short description of series [14]: Solubility of the compound. In kind it is physicochemical.
The nature of series [15]: Drug level in plasma of rat chronic constriction injury model at 20 mg/kg, po bid for 8 days measured on last day. In kind it is ADME, organism-based. Also noted: dose 20 mg/kg, route oral.
Series [16] is described as follows: Tmax in rat at 3 mg/kg, po for 1 hrs. The series is classed as ADME, organism-based. Also noted: dose 3 mg/kg, route oral. The note with it: in vivo.
The nature of series [17]: Blood clearance in rat at 1 mg/kg, iv for 1 hrs. In kind it is ADME, organism-based. On the set-up: dose 1 mg/kg, route intravenous.
The nature of series [18]: Volume of distribution at steady state in rat at 1 mg/kg, iv for 1 hrs. The series is classed as ADME, organism-based. Also noted: dose 1 mg/kg, route intravenous. The note with it: in vivo, read-out: Vdss.
The test system of series [19] is Liver microsomes. In words: Intrinsic clearance in human liver microsome. The series is classed as ADME.
Series [20] concerns Rattus norvegicus. In words: AUC in rat at 3 mg/kg, po for 1 hrs. The series is classed as ADME, organism-based, Plasma. On the set-up: dose 3 mg/kg, route oral. The note with it: in vivo.

In general, IC50 refers to the concentration that gives 50% inhibition. Take `CCN1C(=O)CC[C@H]1C(=O)NCc1ccccc1Cl`: 631 nM corresponded to half-maximal inhibition in series [1] (IC50).

As to `CCN1CCC[C@H]1C(=O)NCc1ccc(F)cc1Cl`, in series [1], the 50% inhibitory concentration (IC50) was < 1000 nM.

Compound `CCCN1C(=O)CC[C@H]1C(=O)NCc1ccc(F)cc1Cl` had an IC50 in series [1] of 158 nM.

As to `CC(C)N1C(=O)CC[C@H]1C(=O)NCc1ccc(F)cc1Cl`, the IC50 was 100 nM in series [1] and 1580 nM in series [2].

For `CCN1C(=O)CC[C@H]1C(=O)NCc1ccccc1C(F)(F)F`, the concentration for half-maximal inhibition (IC50) in series [1] was 631 nM.

`CCN1C(=O)CC[C@H]1C(=O)NCc1ccccc1`: the IC50 in series [1] is < 1000 nM.

For `O=C1CC[C@@H](C(=O)NCc2ccc(F)cc2Cl)N1`, the concentration for half-maximal inhibition (IC50) in series [1] is < 1000 nM.

For `CCN1C(=O)CC[C@H]1C(=O)NCc1ccc(F)cc1Cl`, in [1], the midpoint of inhibition, the IC50, lay at 31.6 nM. The CL in series [3] was < 0.5 mL/min/g.

Take `Cc1ccc(-c2cc(C(F)(F)F)nn2-c2ccc(S(N)(=O)=O)cc2)cc1`: in series [4], the outcome was inactive.

As to `O=C(NCc1ccc(F)cc1Cl)[C@@H]1CCC(=O)N1C1CCCC1`, inhibition in [1] was half-maximal at 501 nM (IC50).

As for `CCN1C(=O)CC[C@H]1C(=O)NCc1ccc(Cl)cc1`, the IC50 in series [1] was 631 nM.

With `CCN1C(=O)CC[C@H]1C(=O)NCC1CCCCC1`, in series [1], the IC50 is < 1000 nM.

Consider `CCN1C(=O)CC[C@H]1C(=O)NCc1cccc(C(F)(F)F)c1`, for which half-maximal inhibition in series [1] (IC50) was put at 100 nM.

For `O=C(NCc1ccc(F)cc1Cl)[C@@H]1CCC(=O)N1c1ccccc1`, in series [1], the IC50 was 794 nM.

By logD is commonly meant lipophilicity at a set pH, counting ionised and neutral species. With `CC(C)N1C(=O)CCC1C(=O)NCc1ccc(F)cc1Cl` (stereo not drawn), the IC50 in series [1] is 316 nM; in series [2] it was > 10000 nM. For the same compound, the pH-dependent lipophilicity (logD) in series [5] came out at 2.6.

As for `Cc1nn(-c2ccccc2)c(C)c1CC(=O)NCc1ccc(F)cc1Cl`, the CL in [3] was 46 mL/min/g. In addition, the logD in [5] was 3.4.

On to `CCN1C(=O)CC[C@H]1C(=O)NCc1ccccc1OC`, for which the IC50 in series [1] was < 1000 nM.

In turn, `CC(=O)N1CCC[C@H]1C(=O)NCc1ccc(F)cc1Cl` gave an IC50 in [1] of 100 nM.

Consider `CN(Cc1ccc(Cl)cc1Cl)C(=O)[C@@H]1CCC(=O)N1C`, for which the IC50 in series [1] was < 1000 nM.

In the case of `O=C(NCc1ccc(F)cc1Cl)[C@@H]1CCC(=O)N1C1CCC1`, the CL in series [3] worked out at 2.3 mL/min/g.

In general, half-life refers to how long it takes for the measured level to halve. Lower therefore signals fast loss. For orientation: bioavailability means dose-corrected exposure relative to a reference, in per cent. What is called Cmax is the highest concentration seen after dosing. As usually defined, the solubility is the concentration that dissolves in the medium under given conditions. One may read the Tmax as the time at which the peak concentration occurs. In general, clearance refers to the volume of plasma or blood freed of the substance per unit of time. A lower clearance goes with inefficient removal. Take `CN1C(=O)CC[C@H]1C(=O)NCc1cccc(C(F)(F)F)c1Cl` [GSK1482160]: the results for the concentration in [6] and in series [9] were 26.7 µM and 12.9 µM, respectively. Moreover, the 50% inhibitory concentration (IC50) is 3.16 nM in [1] and 316 nM in series [2]. The same compound had a half-life in series [7] of 1.5 h. In addition, the bioavailability in [8] came to 65%. The concentration at 192 h in series [10] was found to be 3.36 µM; in series [15], 5.91 µM. Besides, the outcome in [11] and in [13] was Active. Further, in [12], the Cmax stood at 2.45 µM. This compound also returned a logD in series [5] of 1.9. This compound also yielded a solubility in series [14] of 970 µg/mL (≈ 2900 µM). The time of peak concentration (Tmax) in series [16] is 1 h. The compound also came in with a clearance in series [17] of 9 mL/min/kg. In series [18], the Vd was 1.1 L/kg. The CL in series [19] was < 0.5 mL/min/g. Further, the AUC in series [20] was 73 kg·min/L.

With `CC(C)CN1C(=O)CC[C@H]1C(=O)NCc1ccc(F)cc1Cl`, the midpoint of inhibition in series [1], the IC50, lay at 398 nM.

`CN1C(=O)CC[C@H]1C(=O)NCc1ccc(F)cc1Cl` gave a concentration for half-maximal inhibition (IC50) in series [1] of 100 nM.

Consider `Cc1n[nH]c(C)c1CC(=O)NCc1ccc(Cl)cc1Cl`, for which, in series [3], the CL is 1.3 mL/min/g. The compound further displayed a logD in [5] of 2.7.

In turn, `CCN1C(=O)CC[C@H]1C(=O)NCC12CC3CC(CC(C3)C1)C2` had an IC50 in [1] of 79.4 nM.

For `CCN1C(=O)CC[C@@H]1C(=O)NCc1ccc(F)cc1Cl`, in series [1], the half-inhibitory concentration (IC50) is 158 nM.

On to `CN(C(=O)c1cc(Cl)c(=O)n(Cc2c(Cl)cccc2Cl)c1)c1ccccc1`, for which the IC50 is 126 nM in series [1] and 316 nM in series [2]. In addition, the CL in series [3] was > 50 mL/min/g. The compound further gave a pH-dependent lipophilicity (logD) in [5] of 4.4.
